Molecules are shown by their SMILES. The source made the active and inactive calls. The rule behind the calls is not given here.

For data set [1], the system named is MM1.S. The experiment in a line: Antiproliferative activity against human MM1.S cells assessed as reduction in cell viability after 144 hrs. The format is functional, cell-based.
The nature of data set [2]: Stability in human liver microsomes assessed as parent compound remaining measured after 30 mins. The class given is ADME, Microsome. Conditions: liver microsomes, read-out: Stabilty.
Data set [3] can be described thus: Stability in mouse liver microsomes assessed as parent compound remaining measured after 30 mins. The format is ADME, Microsome. The settings on record: liver microsomes, read-out: Stabilty. A general note: Liver microsomes are a subcellular fraction often used to study metabolism.
For data set [4], the target named is Histone deacetylase 1 (Homo sapiens) (UniProt Q13547). The data set is described as follows: Inhibition of human HDAC1 at 1uM using RHKKAc as substrate by fluorescence method relative to control.
For data set [5], the target named is T1, Lysine-specific histone demethylase 1A (Homo sapiens, UniProt O60341). The experiment in a line: Inhibition of LSD1 (unknown origin).
Data set [6] addresses T2, Protein deacetylase HDAC6 (Homo sapiens, UniProt Q9UBN7).
T2 sequence (Q9UBN7 whole entry): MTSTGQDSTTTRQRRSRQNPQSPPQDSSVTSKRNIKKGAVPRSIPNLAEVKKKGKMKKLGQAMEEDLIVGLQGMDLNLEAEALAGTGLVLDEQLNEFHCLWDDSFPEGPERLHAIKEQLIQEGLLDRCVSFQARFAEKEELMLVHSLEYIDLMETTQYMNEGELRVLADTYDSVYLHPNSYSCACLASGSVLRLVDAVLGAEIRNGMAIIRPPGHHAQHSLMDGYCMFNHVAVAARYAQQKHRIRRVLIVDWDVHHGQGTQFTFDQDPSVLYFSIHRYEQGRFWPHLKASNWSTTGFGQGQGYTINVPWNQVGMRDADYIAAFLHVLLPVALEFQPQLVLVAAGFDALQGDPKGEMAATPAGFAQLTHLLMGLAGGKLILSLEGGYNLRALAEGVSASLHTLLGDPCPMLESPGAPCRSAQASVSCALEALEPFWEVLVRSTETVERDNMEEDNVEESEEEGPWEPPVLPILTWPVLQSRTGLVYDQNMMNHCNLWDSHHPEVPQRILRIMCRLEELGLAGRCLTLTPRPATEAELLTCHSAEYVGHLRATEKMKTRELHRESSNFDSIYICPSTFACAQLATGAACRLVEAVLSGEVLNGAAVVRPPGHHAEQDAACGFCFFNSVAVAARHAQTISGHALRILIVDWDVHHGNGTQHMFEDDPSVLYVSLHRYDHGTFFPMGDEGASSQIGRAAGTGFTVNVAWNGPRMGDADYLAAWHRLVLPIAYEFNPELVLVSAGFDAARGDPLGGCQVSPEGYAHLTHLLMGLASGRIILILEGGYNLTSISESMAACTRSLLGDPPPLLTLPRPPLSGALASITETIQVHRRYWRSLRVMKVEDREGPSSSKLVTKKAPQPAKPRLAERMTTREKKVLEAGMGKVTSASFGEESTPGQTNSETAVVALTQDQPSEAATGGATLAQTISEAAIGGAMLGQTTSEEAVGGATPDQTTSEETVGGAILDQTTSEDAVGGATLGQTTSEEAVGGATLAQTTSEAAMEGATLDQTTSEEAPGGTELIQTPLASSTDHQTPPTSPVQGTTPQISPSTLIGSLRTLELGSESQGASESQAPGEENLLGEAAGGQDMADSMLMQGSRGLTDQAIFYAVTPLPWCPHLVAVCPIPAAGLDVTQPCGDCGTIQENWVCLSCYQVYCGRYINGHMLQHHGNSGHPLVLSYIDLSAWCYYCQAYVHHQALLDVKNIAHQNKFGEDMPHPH
The experiment in a line: Inhibition of human HDAC6 (unknown origin) using RHKKAc as substrate by fluorescence method. The settings on record: read-out: IC50.

Data set [7] has as its target T1, Lysine-specific histone demethylase 1A. The experiment in a line: Inhibition of LSD1 in human MM1.S cells assessed as modulation alpha-tubulin acetylation at 100 to 500 nM after 1 to 3 hrs by Western blot analysis. The format is cell-based. Conditions: dose 100-500 nM, time 1-3 hrs.
For data set [8] the target is unchanged. The experiment in a line: Inhibition of LSD1 in human MM1.S cells assessed as modulation of c-Myc mRNA expression at 0.5 uM after 6 to 24 hrs by qRT-PCR analysis. The class given is cell-based. Conditions: time lower 6.0 hrs, time upper […]. (In general: In qPCR the cycle at which signal appears reflects the starting amount.)
For data set [9] the target is unchanged. The data set is described as follows: Inhibition of LSD1 in human MM1.S cells assessed as modulation of p21 mRNA expression at 0.5 uM after 6 to 24 hrs by qRT-PCR analysis. The class given is cell-based. Conditions: time lower 6.0 hrs, time upper […].
For data set [10], the target named is T3, Protein deacetylase HDAC6 (Homo sapiens) (UniProt Q9UBN7).
T3 sequence (whole entry): T2 sequence (Q9UBN7 whole entry)
The data set is described as follows: Inhibition of HDAC6 in human MM1.S cells assessed as modulation alpha-tubulin acetylation at 100 to 500 nM after 1 to 3 hrs by Western blot analysis. The format is cell-based. The settings on record: dose 100-500 nM, time 1-3 hrs. Background: In western blotting, separated proteins are transferred to a membrane and probed.

Data set [11] concerns the target T3, Protein deacetylase HDAC6 (Homo sapiens). The data set is described as follows: Inhibition of HDAC6 in human MM1.S cells assessed as modulation of c-Myc mRNA expression at 0.5 uM after 6 to 24 hrs by qRT-PCR analysis. The format is cell-based. Conditions: time lower 6.0 hrs, time upper […].
The target is the same in data set [12]. The data set is described as follows: Inhibition of HDAC6 in human MM1.S cells assessed as modulation of p21 mRNA expression at 0.5 uM after 6 to 24 hrs by qRT-PCR analysis. The class given is cell-based. The settings on record: time lower 6.0 hrs, time upper […].
Data set [13] concerns MM1.S. The data set is described as follows: Antitumour activity against human MM1.S cells xenografted in SCID mouse assessed as tumour growth inhibition at 25 mg/kg, po for 12 days relative to control. The format is functional. The settings on record: 288 h, time 12 day, read-out: TGI.
In data set [14] the test system is MM1.S. The data set is described as follows: Antitumour activity against human MM1.S cells xenografted in SCID mouse assessed as tumour growth inhibition at 50 mg/kg, […] for 12 days relative to control. Conditions: 288 h, time 12 day, read-out: TGI. The format is functional.

Chain of Histone deacetylase 1 (Homo sapiens) (Q13547 whole entry): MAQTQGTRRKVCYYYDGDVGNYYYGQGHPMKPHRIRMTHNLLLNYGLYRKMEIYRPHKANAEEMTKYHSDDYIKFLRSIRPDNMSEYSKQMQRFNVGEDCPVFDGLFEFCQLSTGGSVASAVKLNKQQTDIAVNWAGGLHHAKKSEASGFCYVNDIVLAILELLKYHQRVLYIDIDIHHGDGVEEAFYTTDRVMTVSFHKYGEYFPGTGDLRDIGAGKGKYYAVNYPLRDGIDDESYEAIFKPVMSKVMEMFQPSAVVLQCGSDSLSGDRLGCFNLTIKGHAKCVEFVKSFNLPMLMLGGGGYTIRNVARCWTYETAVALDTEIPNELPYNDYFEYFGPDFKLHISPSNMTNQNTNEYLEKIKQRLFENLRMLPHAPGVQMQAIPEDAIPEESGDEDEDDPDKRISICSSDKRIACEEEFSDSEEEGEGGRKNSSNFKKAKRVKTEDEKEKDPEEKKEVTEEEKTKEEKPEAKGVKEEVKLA

On to `O=C(NO)c1ccc(CCCN2CCC(CN[C@H]3C[C@@H]3c3ccccc3)CC2)cc1`, for which the EC50 (commonly the concentration giving half of the maximal effect) in [1] turned out to be 4 nM. The remaining at 0.5 h was 51% in data set [2] and 50% in [3].

For `O=C(NO)c1ccc(CCCN2CCC(CN[C@@H]3C[C@H]3c3ccccc3)CC2)cc1`, the EC50 in data set [1] came to 3 nM. For the same molecule, the inhibition (as a rule, the relative decrease from the control value, in per cent) in data set [4] was determined as 57.6%. For the same molecule, the remaining at 0.5 h in [2] amounted to 38%; in [3], 26%.

Consider `CN(CC1CCN(CCCc2ccc(C(=O)NO)cc2)CC1)[C@H]1C[C@@H]1c1ccccc1` (racemic), for which, in [1], the EC50 was 48 nM. Further, in [4], the inhibition was determined as 8.37%. For the same molecule, the IC50 (usually the concentration that inhibits the measured activity by half) in data set [5] (read-out: IC50) came to 465 nM.

For `O=C(NO)c1ccc(CCCN2CC(CN[C@H]3C[C@@H]3c3ccccc3)C2)cc1` (racemic), in [1], the EC50 came to 25 nM. For the same molecule, the IC50 in data set [6] came to 184 nM; in data set [5] (read-out: IC50) it was 29 nM. Moreover, in [4], the inhibition amounted to 0.7%. Further, the remaining at 0.5 h was 84% in [2] and less than 5% in data set [3].

Regarding `O=C(NO)c1ccc(CCN2CCC(CN[C@H]3C[C@@H]3c3ccccc3)CC2)cc1` (racemic), the EC50 in data set [1] was found to be 28 nM. Also, the IC50 came to 490 nM in data set [6] and 15 nM in [5] (read-out: IC50). Further, in data set [4], the inhibition worked out at 50.7%. Further, the remaining at 0.5 h in [2] was determined as 77%; in data set [3], 68%.

As for `O=C(NO)c1csc(CCCN2CCC(CN[C@H]3C[C@@H]3c3ccccc3)CC2)n1` (racemic), the EC50 in data set [1] was more than 10000 nM. For the same molecule, the IC50 in data set [6] was more than 10000 nM; in [5] (read-out: IC50), 26 nM. The inhibition in data set [4] is -0.22%. The remaining at 0.5 h was found to be 88% in data set [2] and 95% in data set [3].

As to `Cn1cc(-c2ccc([C@H]3C[C@@H]3NCC3CCN(CCCc4ccc(C(=O)NO)cc4)CC3)cc2)cn1` (racemic), the EC50 in [1] stood at 7 nM. Besides, the IC50 came out at 66 nM in data set [6] and 43 nM in [5] (read-out: IC50). For the same molecule, the inhibition in data set [4] amounted to 41.6%. Besides, the remaining at 0.5 h in data set [2] stood at 77%; in data set [3], 66%.

As for `Cc1noc(C)c1-c1ccc([C@H]2C[C@@H]2NCC2CCN(CCCc3ccc(C(=O)NO)cc3)CC2)cc1` (racemic), in data set [1], the EC50 turned out to be 11 nM. For the same molecule, the IC50 came out at 58 nM in data set [6] and 59 nM in [5] (read-out: IC50). Moreover, the inhibition in data set [4] came to 35.4%. Moreover, the remaining at 0.5 h in [2] worked out at 82%; in data set [3], 77%.

Consider `O=C(NO)c1coc(CCCN2CCC(CN[C@H]3C[C@@H]3c3ccccc3)CC2)n1` (racemic), for which the EC50 in data set [1] is more than 10000 nM. Besides, the figures for the IC50 in data set [6] and in [5] (read-out: IC50) were more than 10000 nM and 26 nM, respectively. Further, in data set [4], the inhibition amounted to 6.85%. Further, the remaining at 0.5 h in data set [2] came to 78%; in data set [3], 76%.

As to `O=C(NO)c1ccc(CCCN2CCC(CN[C@H]3C[C@@H]3c3ccc(F)cc3)CC2)cc1` (racemic), the IC50 in [6] is 51 nM; in data set [5] (read-out: IC50), 6 nM. Further, the inhibition in [4] was determined as 12.7%. Moreover, the values for the remaining at 0.5 h in data set [2] and in data set [3] were 54% and 66%, respectively.

For `O=C(NO)c1cnc(CCCN2CCC(CN[C@H]3C[C@@H]3c3ccccc3)CC2)s1` (racemic), the EC50 in data set [1] was 63 nM. Besides, the IC50 in [6] turned out to be 517 nM; in data set [5] (read-out: IC50), 22 nM. In [4], the inhibition turned out to be 10.7%. Further, the figures for the remaining at 0.5 h in data set [2] and in data set [3] were 90% and 87%, respectively.

Turning to `O=C(O)c1ccc(CCCN2CCC(CN[C@H]3C[C@@H]3c3ccccc3)CC2)cc1` (racemic), the EC50 in data set [1] is more than 10000 nM. The IC50 in data set [6] was more than 10000 nM. Further, the inhibition in data set [4] is 8.36%. Also, the remaining at 0.5 h is 63% in data set [2] and 80% in data set [3].

`O=C(NO)c1ccc(CCCN2CCC(CN[C@H]3C[C@@H]3c3ccccc3)CC2)cc1` (racemic): in [4], the inhibition turned out to be 18.4%. Also, the inhibition entry in data set [7], in data set [8], in data set [9], in data set [10], in [11] and in data set [12] was “Active” each time.

Regarding `O=C(O)c1ccc(CN2CCC(CN[C@@H]3C[C@H]3c3ccccc3)CC2)cc1` [GSK2879552], in data set [13], the inhibition in vivo at 25 mg/kg worked out at 40%.

Turning to `O=C(CCCCCCNC(=O)c1cnc(N(c2ccccc2)c2ccccc2)nc1)NO` [RICOLINOSTAT], in data set [1], the EC50 amounted to 0.85 nM. Besides, the inhibition in vivo at 50 mg/kg in [14] is 36%. Besides, the remaining at 0.5 h came to 93% in data set [2] and 77% in data set [3]. In data set [5], the IC50 result is on record as “Not Active”.

These data come from ChEMBL document CHEMBL4715885, “Novel dual LSD1/HDAC6 inhibitors for the treatment of multiple myeloma” (Bioorg Med Chem Lett, 2021).
